Laboratory results taken from ChEMBL document CHEMBL5725290, “IRE-1α inhibitors” (2017).

molecular target: Serine/threonine-protein kinase/endoribonuclease IRE1 (Homo sapiens, UniProt O75460); assay: IRE-1alpha Assay: A fusion protein comprising glutathione S transferase (GST) and human IRE-1α (GST-IRE-1α) obtained from a 500 ml baculovirus-infected insect cell culture can be used to measure IRE-1α activity in vitro. Five μl of a reaction mixture comprising 1× reaction buffer (5× reaction buffer is 100 mM Hepes pH 7.5, 250 mM KOAc, 2.5 mM MgCl2), 3 mM DTT, and 0.4% polyethylene glycol water is added to each well of 384 well plates. Twenty-five nanoliters of a 1 mM test compound solution are added to test wells. Three μl of a 128 ng/ml IRE-1α preparation are added to each test well and to positive control wells (final concentration 5.82 ng/well). Negative control wells contain only reaction mixture and test compound. After spinning the plates at 1200 rpm for 30 seconds, 3 μl of an IRE-1α human mini-XBP-1 mRNA stem-loop substrate 5'-[…]-3' (SEQ ID NO:1), labeled with the fluorescent dye Cy5 at the 5' end and Black Hole Quencher 2 (BH2) at the 3' end, are added to each well of a control plate. The plates are again spun at 1200 rpm for 30 seconds. Final concentrations for the assay are: 63 nM IRE-1α substrate, 5.82 ng IRE-1α protein, and 2.5 μM test compound. The plates are covered with lids and incubated for one hour at 30° C. The plates are then transferred to an ACQUEST™ microplate reader. Data is analyzed using data analysis software, and the percent activity of IRE-1α is calculated.
Sequence (O75460 whole entry, the tested form may be a part): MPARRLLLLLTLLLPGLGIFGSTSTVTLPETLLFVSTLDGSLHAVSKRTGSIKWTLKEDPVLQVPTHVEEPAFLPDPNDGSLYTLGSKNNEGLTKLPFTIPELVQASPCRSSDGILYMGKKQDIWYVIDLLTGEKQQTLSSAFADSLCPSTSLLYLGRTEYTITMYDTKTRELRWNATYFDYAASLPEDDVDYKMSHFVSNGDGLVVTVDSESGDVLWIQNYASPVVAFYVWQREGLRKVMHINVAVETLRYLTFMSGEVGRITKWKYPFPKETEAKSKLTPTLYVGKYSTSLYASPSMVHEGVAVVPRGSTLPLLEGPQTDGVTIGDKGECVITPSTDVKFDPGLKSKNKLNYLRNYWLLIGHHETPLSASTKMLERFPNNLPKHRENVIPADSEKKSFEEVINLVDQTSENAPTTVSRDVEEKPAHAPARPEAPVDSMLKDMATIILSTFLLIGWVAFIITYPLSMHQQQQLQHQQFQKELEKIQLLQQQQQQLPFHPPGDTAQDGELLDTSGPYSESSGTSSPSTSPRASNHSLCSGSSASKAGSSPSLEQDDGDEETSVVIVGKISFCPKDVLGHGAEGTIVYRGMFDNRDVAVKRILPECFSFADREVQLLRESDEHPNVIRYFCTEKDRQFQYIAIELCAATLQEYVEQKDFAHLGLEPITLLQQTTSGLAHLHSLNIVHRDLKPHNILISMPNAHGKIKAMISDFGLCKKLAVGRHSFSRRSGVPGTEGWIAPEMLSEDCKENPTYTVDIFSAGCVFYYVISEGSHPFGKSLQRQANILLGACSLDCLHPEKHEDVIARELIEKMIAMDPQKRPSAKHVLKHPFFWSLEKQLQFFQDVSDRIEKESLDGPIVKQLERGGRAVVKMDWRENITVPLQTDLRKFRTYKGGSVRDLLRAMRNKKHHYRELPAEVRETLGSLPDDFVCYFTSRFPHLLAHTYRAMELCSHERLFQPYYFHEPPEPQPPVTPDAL

EC50, > 10 µM:
CN1CCN(C(=O)c2ccc(-c3nc4ccc(O)c(C=O)c4s3)s2)CC1
CC1CCN(C(=O)c2ccc(-c3ccc4c(C=O)c(O)ccc4n3)cc2)CC1
O=Cc1c(O)ccc2cc(-c3ccc(Br)cc3)c(=O)oc12
Cc1c(-c2cccc(C(=O)N3CCCC3)c2)c(=O)oc2c(C=O)c(O)ccc12
COC(=O)c1ccc(-c2nc3ccc(O)c(C=O)c3[nH]2)cc1
O=Cc1c(O)ccc2nc(-c3ccc(C(=O)NCCN4CCOCC4)cc3)[nH]c12
Cc1nc(N2CCc3c(ccc(O)c3C=O)C2)sc1C(=O)N1CCOCC1
O=Cc1c(O)ccc2nc(-c3ccc(C(=O)N4CCOCC4)cc3)[nH]c12
CC(C)N1CCN(c2nc3ccc(O)c(C=O)c3s2)CC1
CC1CCN(C(=O)c2ccc(-c3nc4ccc(O)c(C=O)c4s3)cc2)CC1
CN1CCN(C2CCN(c3nc4ccc(O)c(C=O)c4s3)C2)CC1 (stereo not given)
O=Cc1c(O)ccc2nc(-c3ccc(C(=O)O)cc3)[nH]c12
CCN(CC)CCc1c(C)c2ccc(O)c(C=O)c2oc1=O
CN1CCN(C(=O)c2ccc(-c3nc4ccc(O)c(C=O)c4[nH]3)cc2)CC1
Cc1c(Cc2ccccc2)c(=O)oc2c(C=O)c(O)c(O)cc12

EC50, < 10 µM:
Cc1c(-c2ccc(C(=O)N3CCC(C)CC3)cc2)c(=O)oc2c(C=O)c(O)ccc12
Cc1c(CCC(=O)N2CCOCC2)c(=O)oc2c(C=O)c(O)ccc12
O=Cc1c(O)ccc2nc(N3CCC(NC(=O)CN4CCOCC4)C3)ccc12 (stereo not given)
Cc1c(-c2ccc(N3CCN(C)CC3)cc2)c(=O)oc2c(C=O)c(O)c(F)cc12
O=Cc1c(O)ccc2nc(-c3cccc(C(=O)N4CCOCC4)c3)ccc12
Cc1c(-c2ccc(C(=O)N3CCCC3)cc2)c(=O)oc2c(C=O)c(O)ccc12
CC(=O)NC1CCN(c2ccc3c(C=O)c(O)ccc3n2)C1 (stereo not given)
Cc1cc(=O)oc2c(C=O)c(O)c(F)cc12
COc1cc2c(C)c(-c3ccc(C(=O)N4CCOCC4)cc3)c(=O)oc2c(C=O)c1O
COc1cc2c(C)c(Br)c(=O)oc2c(C=O)c1O
Cc1c(Br)c(=O)oc2c(C=O)c(O)c(F)cc12
Cc1c(Br)c(=O)oc2c(C=O)c(O)ccc12
Cc1c(-c2ccc(C(=O)N3CCN(C)CC3)cc2)c(=O)oc2c(C=O)c(O)ccc12
Cc1c(-c2cccc(C(=O)N3CCOCC3)c2)c(=O)oc2c(C=O)c(O)ccc12
O=Cc1c(O)ccc2nc(-c3ccc(C(=O)N4CCCC4)cc3)ccc12
